Data reported in patent US20090093541A1, “MELANIN ELIMINATOR PREPARATION” (OGA RESEARCH, INC, priority 2002, published 2009).

Tests used:
blotches and lentigines = test: Lotion applied to blotches and lentigines (general description); type: in vivo, human; details: lotion containing 0.5 (w/w)%; applied one or two times daily; about one month
From the text: The effect was also noted on blotches formed on the acne scars, showing clear difference compared with the pre-treatment conditions.

[1] = test system: lentigo (1-mm diameter) on the arm; test: Test Example 5: topical application to a lentigo on the arm; type: in vivo, human; details: topically applied twice daily, preparation according to Preparation Example 1, two months later
Experimental: To a lentigo (1-mm diameter) on the arm was topically applied twice daily a preparation that was prepared according to Preparation Example 1 except that N-(6,8-dimercaptooctanoyl)histidine sodium/zinc chelate of Example 2 was used instead of N-(6,8-dimercaptooctanoyl)anthranilic acid sodium/zinc chelate of Example 2.

Substance	melanin eliminating effect on blotches and lentigines (fading from black to pale umber or falling off as a scab) (blotches and lentigines)	elimination of black color of lentigo [1]
N-(6,8-dimercaptooctanoyl)-3-aminopropionic acid sodium/zinc chelate compound [Example 10]	satisfactory effects	
N-(6,8-dimercaptooctanoyl)anthranilic acid sodium/zinc chelate compound [Reference Example 8]	satisfactory effects	
N-(6,8-dimercaptooctanoyl)histidine sodium/zinc chelate compound [Example 2]		the black color was found eliminated leaving a subtle scar behind
